Measurements: US8318899B2, “Lytic domain fusion constructs and methods of making and using same” (Board of Supervisors of Louisiana State University and …, priority 2008, dated 2012)
“Also recorded” adds a separate entry of the source.

Assays:
[1] = test system: NIH:3T3; format: cell-based, mouse; conditions: non cancerous cell line 3T3
Protocol: (§1) The breast cancer cell lines studied were MDA-MB435S (estrogen receptor alpha negative), MCF-7 and T47D (estrogen receptor alpha positive), ovarian cancer cell lines (OVCAR-3 and SKOV-3), prostate cancer (LNCaP), the non-malignant breast epithelial cell line MCF-10A and the mouse fibroblast cell line NIH:3T3.
(§2) Cells were seeded into 96 well plates at a density of 10,000 cells/well. […] Controls contained USP saline or 0.1% TritonX-100™ as reference for 0 and 100% cell death, respectively. Incubations were terminated by removing the culture media after 2 minutes, 5 minutes, 15 minutes, 30 minutes, 1 hour, 2 hours, 6 hours, 24 and 48 hours. Cell viability was assessed through formazan conversion assay (MTT assay, (CellTiter 96 Aqueous One, Promega # G3582). Formazan conversion was determined using a BioRad Benchmark Plus microplate spectrophotometer dual wavelengths at 490/630 nm at room temperature).
(§3) Data were calculated as fraction of absorption in TritonX-100™ containing wells representing 100% cell death versus 0% cell death in saline containing wells. Cytotoxicity was determined as IC50 using GraphPad Prism version 5.01 for Windows, GraphPad Software, San Diego Calif. […] 4 wells of each individual set of two 96 well plates were compared and analyzed. Statistical analysis for significance was determined by a two-tailed Student's T-test.

[2] = test system: PC-3 xenograft; assay: PC-3 prostate cancer xenograft; format: in vivo, Nu/Nu mice
Protocol: PC-3 xenografts untreated cause significant weight loss in mice.
In brief, Nu/Nu male mice, outbred strain, age 6 weeks (Charles River) were injected subcutaneously with a PC-3 cells/Matrigel suspension (1×10^6 cells/mouse). Treatment was started on day 15 after tumor cell injection when the tumors were established and continued on days 22 and 29. […]
A group of 12 tumor bearing mice was sacrificed on day 15 and served as baseline group. All mice were necropsied 35 and 36 days after tumor cell injection. Tumor volumes and bodyweights were recorded twice weekly during the study, as well as overall veterinarian examination of mice was conducted.
(§4) Primary tumors, liver, kidney, pancreas, heart, lung, and spleen were collected, fixed in formalin and prepared for histological evaluation. Tumor weights were measured at necropsy, part of the tumors were frozen at −80° C. for LH/CG and LHRH receptor assay determination.

[3] = test system: MDA-MB-435 cells; assay: Fluorescence microscopy, MDA-MB-435 breast cancer cells; format: cell-based, human; conditions: 10 μM, 5 minutes exposure
Protocol: In brief, human breast cancer cells (MDA-MB435, passage #252) were seeded onto culture dishes. The following markers were introduced prior to adding EP100: DRAQ5™ (Alexis Corporation)—blue—was used for staining of the nucleus and MitoTracker® Red CMXRos (M7512) (Molecular Probes, Inc. OR) were applied for visualizing intact mitochondria. Cell membranes were stained with wheat germ alexa fluor green conjugates (Molecular Probes, Inc. OR).
Cells were loaded first with Mitotracker dye, according to the manufacturers recommendation. […] Culture dishes with saline only served as controls. The supernatant was removed and the remaining cells prepared for fluorescence microscopy imaging.

[4] = test system: OVCAR-3; assay: IC50 in OVCAR-3 ovarian cancer cell line; format: cell-based, human
Protocol: MDA-MB435S.luc cells were grown in Leibovitz's L 15 medium, 10% fetal bovine serum, 0.01 mg/ml bovine insulin, 100 IU/ml penicillin, 100 microg/ml streptomycin. The cells were cultured in tight closed flasks. The incubations were conducted using 96 well plates at 10,000 cells per well. Cells were typically seeded into 96 well plates and media was replaced after 48 hours of incubation. Each assay was conducted at increasing concentrations of 0, 0.001, 0.01, 0.05, 0.1, 0.5, 1, 2, 5, 10 and 100 micromolar doses of lytic peptide-binding domain conjugate. Each lytic peptide-binding domain conjugate provided in lyophilized form and was freshly dissolved in saline and added to cells. The duration of incubation was typically 24 h, and cell viability assays were conducted using formazan conversion assays (MTT assay). Controls contained saline or 0.1% triton as reference for 0 and 100% cell death, respectively.
To ascertain the IC50 of various fusion constructs on different human cancer cell lines compared to cisplatinum, IC50 of fusion constructs were evaluated as in Table 3.

[5] = test system: MDA-MB-435S xenograft; assay: MDA-MB-435S xenograft, kinetics after a single injection; format: in vivo, Nu/Nu mice; conditions: single i.v. injection 0.2 and 2 mg/kg
Protocol: In brief, Nu/Nu female mice, outbred strain, age 5 weeks (Charles River), were injected (s.c.) into the interscapular region with a MDA-MB-435 S (passage #249)/Matrigel suspension (2.4×10^6 cells/mouse) as described in Example 10. […] The doses were given as a single bolus intravenous injection via lateral tail vein.
Mice were sacrificed 1, 2 and 16 hours after treatment with Phor 18-LHRH (338613) or saline. At study endpoint body weight, tumor weights were determined and tumors were fixed in phosphate buffered 10% formalin.

[6] = test system: MDA-MB-435S.luc xenograft; assay: MDA-MB-435S.luc xenograft, LHRH fusion constructs; format: in vivo, Nu/Nu mice
Protocol: For LHRH fusion constructs, the mouse xenograft model for breast cancer was used. In brief, Nu/Nu female mice, outbred strain, age 5 weeks (Charles River) were injected subcutaneously with a MDA-MB-435S.luc/Matrigel suspension (1×10^6 cells). Treatment was started on day 21 after tumor cell injection and continued on day 26 and 29. The doses for weekly fusion construct injections were 2, 0.2 and 0.02 mg/kg body weight, given as a bolus single injection. All mice were necropsied 34 days after tumor cell injection-baseline values for tumor weights were obtained by sacrificing 8 mice at treatment start. […] Tumor weights were recorded at necropsy, part of the tumors were frozen at −80° C. for luciferase assay determination.
Characteristics of tumors at necropsy are summarized in FIG. 10: (A) tumor weight, (B) changes of tumor weights compared to baseline, (C) total number of live tumor cells, (D) changes of total live tumor cells compared to baseline, and (E) body weights at baseline and necropsy. Viability of tumor cells was determined at the end of the study when tumors were measured for luciferase activity. Treatment efficacy was calculated as difference between measurements at the beginning of treatment compared to the measurement at the end of study (FIGS. 10B and 10D).

[7] = test system: OVCAR-3 cells; format: cell-based, human; conditions: OVCAR-3 p47, series with increasing incubation time (times not given per value)
From the text: Membranes of non-cancerous cell lines are neutral and are resistant to cytolytic peptides, in contrast to cancer cell lines, which have a high phosphatidic acid content in their outer membrane.
as §1
as §2, with “Incubations were terminated by removing the culture media after 2 minutes, 5 minutes, 15 minutes, 30 minutes, 1 hour, 2 hours, 6 hours, 24 and 48 hours.” left out
as §3

[8] = test system: MDA-MB-435S xenograft; assay: MDA-MB-435S xenograft, once weekly for 3 weeks (minimal effective dose); format: in vivo, Nu/Nu mice; conditions: H&E
Protocol: (§5) In vivo efficacy studies were conducted as monotherapy, or a combination therapy with standard of care treatments in nude mice bearing human breast cancer xenografts: MDA-MB435S.luc (s.c.), MCF-7 (estrogen receptor alpha positive), human ovarian cancer xenografts: OVCAR-3, (s.c.), human prostate cancer xenografts: PC-3 (androgen receptor negative).
(§6) Mice were sacrificed one week after the last injection and blood collected for chemistry panel, tumor weights and body weights were recorded. Part of the tumors were fixed in PBS buffered 10% formalin for histological evaluation.
To determine the minimal effective dose necessary to reduce MDA-MB-435S xenograft weights in a single dose regimen, Nu/Nu female mice, outbred strain, age 5 weeks (Charles River), were injected (s.c.) into the interscapular region with a MDA-MB435S (passage #249)/Matrigel suspension (2.4×10^6 cells/mouse) [Leuschner 2006].
Each group consisted of 16 mice, which were injected once a week for 3 weeks. […] During the entire study tumor volumes were recorded twice weekly. […]
Treatment response was determined by tumor weights and tumor weight change at necropsy compared to saline controls and untargeted CLIP71 treatment. […] Statistical evaluation of data sets were conducted in GraphPad Prizm 4 and significance calculated by Wilcoxon signed-rank test.

[9] = test system: MCF-7 xenograft; assay: MCF-7 breast cancer xenograft; format: in vivo, nude mice; conditions: 2 × 3 wk, 19 d, growth delay
Protocol: as §5
PHOR 18-LHRH (338613) Combination therapies were conducted in a MCF-7 breast cancer xenograft models.
as §6

[10] = test system: MDA-MB-435S.luc cells; assay: Cell toxicity (MTT) screening in MDA-MB-435S.luc breast cancer cells; format: cell-based, human; conditions: relative to Phor21-βCG-ala (IC50 2.31 μM)
From the text: The human breast cancer cell line MDA-MB-435S.luc, which over expresses chorionic gonadotrophin (CG) and luteinizing hormone-releasing hormone (LHRH) receptors, was used to screen at passage numbers 248-252. The MDA-MB-435S.luc cell line was constructed from the MDA-MB-435S cell line obtained from the American Type Cell Culture Collection by stable transfection with the plasmid PRC/CMV-luc containing the Photinus pyralis luciferase gene and an […] by lipofection. The stably transfected cell line was selected using G418 and the clones with the highest expression for the luciferase gene were tested for their LH and LHRH receptor expression.
MDA-MB435S.luc cells were grown in Leibovitz's L 15 medium, 10% fetal bovine serum, 0.01 mg/ml bovine insulin, 100 IU/ml penicillin, 100 microg/ml streptomycin. The cells were cultured in tight closed flasks. The incubations were conducted using 96 well plates at 10,000 cells per well. Cells were typically seeded into 96 well plates and media was replaced after 48 hours of incubation. Each assay was conducted at increasing concentrations of 0, 0.001, 0.01, 0.05, 0.1, 0.5, 1, 2, 5, 10 and 100 micromolar doses of lytic peptide-binding domain conjugate. […]
Data were processed and analyzed using Graph Pad Prizm 4™ software (Graph Pad Prizm, Inc). Statistical analysis for significance was determined by a two-tailed Student's T-test. […]

[11] = test system: NIH:OVCAR-3 xenograft; assay: OVCAR-3 ovarian cancer xenograft; format: in vivo; conditions: for tumor volume during treatment: Phor18-LHRH 0.02-2 mg/kg, CLIP71 2 mg/kg, cisplatinum 10 mg/kg; for tumor weights at necropsy: mouse, in vivo
Protocol: The xenograft model of the OVCAR-3 human ovarian cancer cell line that present functional LHRH receptors was used in this study. OVCAR-3 represents a slow growing xenograft model and secretes the tumor marker (cancer antigen 125, or […]). It's secretion can be used as treatment response and is a measure of drug activity.
In brief, Nu/Nu female mice, inbred strain, age 5 weeks (Harlan-Sprague Dawley) were injected subcutaneously with a NIH:OVCAR-3 cells/Matrigel suspension (4.6×10^6 cells/mouse). Treatment was started on day 33 after tumor cell injection when the tumors were established and continued on days 41 and 47. The doses for the 3 weekly injections were 0.02, 0.2 and 2 mg/kg body weight, given as a single bolus intravenous injection via lateral tail vein administered once a week for three weeks on days 33, 41 and 47. Necropsies were conducted on day 52. Data are presented as mean SEM. Arrows show dosing.
A group of 9 tumor bearing mice was sacrificed on day 33 and served as baseline group. All mice were necropsied 51-52 days after tumor cell injection. Tumor volumes and bodyweights were recorded twice weekly during the study, as well as overall veterinarian examination of mice was conducted.
as §4
As a biomarker for drug activity, CA125 was determined in serum, collected from each individual mouse at necropsy using a Enzyme Linked Immunoassay for quantitative determination of ovarian cancer antigen CA125 (Assay kit Genway, Biotech, Inc. San Diego, Calif., Catalog #40-052-115009, # BC-1013 according to the manufacturer).
LHRH receptor levels were assessed from formalin fixed tumors. Quantitative immunoperoxidase image analysis was conducted with the Ventana Image Analysis System (VIAS) adjunctive computer assisted image analysis system functionally connected to an interactive microscope (Axio Imager). The quantitative analysis was conducted with the program for quantification of Her2/neu receptor that included morphometric and colorimetric analysis. Receptor status results were reported as percentage of cells showing positive staining of the LHRH receptors under the following criteria: 0 non-immunoreactive, 1+: 1-25% positive, 2+: 26-50% positive, 3+: 51-75% positive cells.

[12] = test system: MDA-MB435S xenograft; assay: MDA-MB435S xenograft, multiple dose regimen; format: in vivo, Nu/Nu mice; conditions: 0.002 and 0.2 mg/kg, multiple i.v. injections
Protocol: In order to determine the minimal effective dose necessary to reduce MDA-MB435S xenograft weights in a multiple dose regimen, Nu/Nu female mice, outbred strain, age 8 weeks (Charles River), were injected (s.c.) into the interscapular region with a MDA-MB435S (passage #253)/Matrigel suspension (2×10^6 cells/mouse) as previously described above. […] The doses were given as a single bolus intravenous injection via lateral tail vein on days 15, 16, 17, 20, 21, 22, 23, 27, 28, 29, 30, 33, 34, 35, 36, 37, 38, 40, 41, 42 after tumor cell inoculation. Saline injections served as control groups.
Each treatment group consisted of 16 mice. During the entire study tumor volumes were recorded twice weekly. Final necropsy was conducted on day 45 after tumor cell injection. […] due to occlusion of the tail vein in most mice. At study endpoint body weight, tumor weights were determined and fixed in phosphate buffered 10% formalin.

| Compound | IC50 [1] | Median Tumor Weight vs Baseline p < 0.05 (dose) ([2]; PC-3 xenograft, 1 × 3 wk, 21 d) | tumor volume during treatment ([2]; Phor18-LHRH 0.002-2 mg/kg, CLIP71 5 mg/kg) | effect on plasma membrane (fluorescence microscopy) [3] | IC50 [4] | time after injection to destruction of tumors (histology) [5] | tumor volume during treatment / 30 days ([6]; 0.02, 0.2, 2 mg/kg weekly) | overall efficacy in reducing tumor weight and live tumor cells (vs other constructs / reference Phor21-βCG-ala) ([6]; mouse, in vivo) | IC50 [7] | dose with significant necrosis in tumors (histology) [8] | Median Tumor Weight vs Saline P < 0.05 (dose) [9] | Increased in vitro activity fold (IC50 of 33/IC50 peptide) [10] | dose with significant necrosis in tumor sections ([11]; H&E) | Median Tumor Weight vs Baseline p < 0.05 (dose) ([11]; OVCAR-3 xenograft, 1 × 3 wk, 20 d) | tumor volume during treatment [11] | serum CA125 ([11]; greatest at 0.2 and 2 mg/kg (p<0.0002 vs saline)) | tumor weights at necropsy [11] | tumor response [12] | tumor volume during treatment ([11]; listed as cisplatinum) |
| --- | --- | --- | --- | --- | --- | --- | --- | --- | --- | --- | --- | --- | --- | --- | --- | --- | --- | --- | --- |
| KFAKFAKKFAKFAKKFAKQHWSYGLRPG [Phor18-LHRH] | > 10000 nM | 0.2 mg/kg | Tumor volumes decreased during treatment | disintegration of the plasma membrane | 3000 ± 500 nM | 1 hour | smallest tumor volumes | Equally effective | 500 nM | 0.0002 mg/kg | 0.02 mg/kg growth | 2.65 fold | 0.02 mg/kg | 0.2 mg/kg | Tumor volumes decreased during treatment | CA125 secretion was reduced | Tumor free mice were found | tumor regression at both dose levels; also recorded: eradication of tumor cells |  |
| N.N.[Cl][Pt][Cl] [Cisplatinum, reference compound] |  |  |  |  |  |  |  |  |  |  |  |  |  |  | no reduction in tumor volume |  | not effective in reducing tumor weights |  | tumor growth was observed |
